pIC50: −log10 of the molar value. Activity calls are given as the source filed them. The calls are words filed in the database; no cut-off is given here.
Experiments:
[1] = Cytotoxicity against […] cells assessed as reduction in cell viability measured after 24 hrs by neutral red staining based spectrophotometric method; conditions: read-out: LC50
[2] = (§1) Neuroprotective activity against H2O2-induced neuronal death in Sprague-Dawley rat primary cerebellar granule neurons assessed as increase in cell viability preincubated for 24 hrs followed by H2O2 addition and measured after 24 hrs by MTT assay; format: functional, Cerebellar granule neurone; conditions: time 48 hrs
Acetylcholinesterase [3] = target: T1, Acetylcholinesterase (Homo sapiens, UniProt P22303); test: Inhibition of human erythrocytes AChE using acetylthiocholine iodide as substrate measured after 30 mins by Ellman's method
T1 sequence (P22303 whole entry): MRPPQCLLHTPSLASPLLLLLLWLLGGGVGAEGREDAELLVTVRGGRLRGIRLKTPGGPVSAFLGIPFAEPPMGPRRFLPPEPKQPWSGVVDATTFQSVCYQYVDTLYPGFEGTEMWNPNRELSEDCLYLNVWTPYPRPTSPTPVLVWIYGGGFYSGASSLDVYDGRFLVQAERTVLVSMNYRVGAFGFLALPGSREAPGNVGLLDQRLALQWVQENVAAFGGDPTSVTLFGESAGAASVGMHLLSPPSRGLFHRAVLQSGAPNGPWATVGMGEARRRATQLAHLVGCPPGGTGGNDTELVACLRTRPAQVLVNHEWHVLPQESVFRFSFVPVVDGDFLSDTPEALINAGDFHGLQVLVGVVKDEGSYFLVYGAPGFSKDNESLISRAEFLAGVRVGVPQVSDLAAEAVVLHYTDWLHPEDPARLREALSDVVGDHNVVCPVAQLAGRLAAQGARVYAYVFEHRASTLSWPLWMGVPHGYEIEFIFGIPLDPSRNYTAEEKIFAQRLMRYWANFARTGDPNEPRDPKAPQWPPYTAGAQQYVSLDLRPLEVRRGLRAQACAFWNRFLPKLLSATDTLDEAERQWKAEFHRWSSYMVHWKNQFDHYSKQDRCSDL

[4] = test system: Cerebellar granule neurone; test: Neuroprotective activity against H2O2-induced neuronal death in Sprague-Dawley rat primary cerebellar granule neurons assessed as increase in cell viability at 0.5 to 10 uM preincubated for 24 hrs followed by H2O2 addition and measured after 24 hrs by MTT assay; format: functional, tissue-based; conditions: dose 0.5-10 µM, time 48.0 hrs
[5] = test system: Cerebellar granule neurone; test: (§2) Neuroprotective activity against H2O2-induced neuronal death in Sprague-Dawley rat primary cerebellar granule neurons assessed as reduction in nuclear condensation at 0.5 to 300 uM preincubated for 24 hrs followed by H2O2 addition and measured after 24 hrs by Hoechst 33258 staining based confocal immunofluorescence microscopic analysis; format: functional, tissue-based; conditions: dose 0.5-300 µM, time 48.0 hrs
[6] = Neuroprotective activity against H2O2-induced neuronal death in Sprague-Dawley rat primary cerebellar granule neurons assessed as increase in cell viability preincubated for 24 hrs followed by H2O2 addition and measured after 24 hrs by MTT assay relative to control; format: functional, Cerebellar granule neurone; conditions: time 48 hrs
[7] = Cytotoxicity against Sprague-Dawley rat primary cerebellar granule neurons assessed as reduction in cell viability measured after 48 hrs by MTT assay; format: tissue-based, Cerebellar granule neurone; conditions: read-out: LC50
[8] = test system: Cerebellar granule neurone; test: as §2, with “neurite fragmentation” for “nuclear condensation”; format: functional, tissue-based; conditions: dose 0.5-300 µM, time 48.0 hrs
[9] = Neuroprotective activity against H2O2-induced cell death in […] cells at 0.5 uM preincubated for 24 hrs followed by H2O2 addition and measured after 24 hrs by neutral red staining based spectrophotometric method relative to control; format: functional; conditions: time 48 hrs
[10] = test system: Cerebellar granule neurone; test: Neuroprotective activity against H2O2-induced neuronal death in Sprague-Dawley rat primary cerebellar granule neurons assessed as increase in cell viability at 0.5 to 300 uM preincubated for 24 hrs followed by H2O2 addition and measured after 24 hrs by MTT assay; format: functional, tissue-based; conditions: dose 0.5-300 µM, time 48.0 hrs
[11] = test system: Cerebellar granule neurone; test: as §1; format: functional; conditions: time 48.0 hrs
Acetylcholinesterase [12] = target: T1, Acetylcholinesterase; test: Potency index, ratio of physostigmine IC50 to test compound IC50 for human erythrocytes AChE

SMILES | CC50 at 24 h [1] [µM] | EC [2] [µM] | pIC50 (Acetylcholinesterase [3]) | Activity [4] | Activity [5] | %max [6] [%] | CC50 at 48 h [7] [µM] | Activity [8] | Activity [9] [%] | Activity [10] | Activity [11] | Ratio IC50 (Acetylcholinesterase [12])
C=CC(C)(C)c1cc([C@@H]2CC(=O)c3c(O)cc(O)c(CC=C(C)C)c3O2)c(O)cc1O | 13 | 5 | 4.54 | inactive | Active | 16.37 | 12.5 | Active | 51.76 | – | – | –
O=C1C[C@@H](c2ccccc2)Oc2cc(O)cc(O)c21 [PINOCEMBRIN] | – | – | – | – | – | – | 247 | – | – | inactive | – | –
C=CC(C)(C)c1cc([C@@H]2CC(=O)c3c(cc(O)c(CC=C(C)C)c3O)O2)c(OC)cc1O | – | – | – | – | – | – | 40.7 | – | – | inactive | – | –
CC(C)=CCc1c(O)cc2c(c1O)C(=O)C[C@@H](c1ccc(O)c(O)c1CC=C(C)C)O2 | – | – | – | – | – | – | > 300 | – | – | inactive | – | –
C=CC(C)(C)c1cc([C@@H]2CC(=O)c3c(O)cc(O)c(CC=C(C)C)c3O2)c(OC)cc1O | – | 200 | – | – | – | 22.3 | > 300 | – | – | – | Dose-dependent effect | –
CC(C)=CCc1c(O)cc(O)c2c1O[C@H](c1ccccc1)CC2=O [GLABRANIN] | 27.3 | 10 | 8.19 | inactive | Active | 20.34 | 44.5 | Active | 31.32 | – | – | 12

— ChEMBL document CHEMBL4765440, “Neuroprotective effects of prenylated flavanones isolated from Dalea species, in vitro and in silico studies” (Eur J Med Chem, 2020)
